According to patent US20210254272A1, “TEXTILES HAVING ANTIMICROBIAL PROPERTIES” (Livinguard AG, priority 2015, published 2021):

Tested on: E. coli (ATCC 25922)
Assay: AATCC Test Method 100-2012 antibacterial activity of the treated textile, after 25 washes and 12 abrasion cycles, contact time 60 minutes
Assay type: cell-based
Procedure: The antibacterial activity of the textile was tested in accordance with AATCC Test Method 100-2012. Prior to the test, the fabric was cut into coupons of 2×4 inches and washed separately 25 times, and exposed to 12 abrasion cycles, as per US EPA protocol 90072PA4 (described further below). The tests were made against E. coli (ATCC 25922). Contact time was 60 minutes, after inoculating with 10^8 CFU per coupon.

polyglucosamine [chitosan]
Log reduction of antimicrobial performance of each active ingredient (exhaust 80 ° C., solution dosage 1% o.w.f, process time 90 min): 2.72 Log | Log reduction of antimicrobial performance (pure cotton fabric, exhaust 80° C., 60 min, dosage 0.1% o.w.f): 0.63 Log | Log reduction of antimicrobial performance (pure cotton fabric, exhaust 80° C., 60 min, dosage 0.2% o.w.f): 1.37 Log | Log reduction of antimicrobial performance (pure cotton fabric, exhaust 80° C., 60 min, dosage 0.5% o.w.f): 1.91 Log | Log reduction of antimicrobial performance (pure cotton fabric, exhaust 80° C., 60 min, dosage 0.8% o.w.f): 2.21 Log | Log reduction of antimicrobial performance (pure cotton fabric, exhaust 80° C., 60 min, dosage 1.0% o.w.f): 2.71 Log | Log reduction of antimicrobial performance (pure cotton, exhaust 80° C., 1% o.w.f, 60 min, curing 180° C., curing dwell time 0.5 min): 0.4 Log | Log reduction of antimicrobial performance (pure cotton, exhaust 80° C., 1% o.w.f, 60 min, curing 180° C., curing dwell time 1.0 min): 0.8 Log | Log reduction of antimicrobial performance (pure cotton, exhaust 80° C., 1% o.w.f, 60 min, curing 180° C., curing dwell time 1.5 min): 1.6 Log | Log reduction of antimicrobial performance (pure cotton, exhaust 80° C., 1% o.w.f, 60 min, curing 180° C., curing dwell time 2.0 min): 2.7 Log | Log reduction of antimicrobial performance (pure cotton, exhaust 80° C., 1% o.w.f, 60 min, curing 180° C., curing dwell time 2.5 min): 2.3 Log | Log reduction of antimicrobial performance (pure cotton, exhaust 80° C., 1% o.w.f, 60 min, curing 180° C., curing dwell time 3.0 min): 1.4 Log | Log reduction of antimicrobial performance (solution dosage 0.10% o.w.f, exhaust temperature 40° C., process time 60 min): 0 Log | Log reduction of antimicrobial performance (solution dosage 0.10% o.w.f, exhaust temperature 60° C., process time 60 min): 0 Log | Log reduction of antimicrobial performance (solution dosage 0.10% o.w.f, exhaust temperature 65° C., process time 60 min): 0 Log | Log reduction of antimicrobial performance (solution dosage 0.10% o.w.f, exhaust temperature 70° C., process time 60 min): 0 Log | Log reduction of antimicrobial performance (solution dosage 0.10% o.w.f, exhaust temperature 75° C., process time 60 min): 0.23 Log | Log reduction of antimicrobial performance (solution dosage 0.10% o.w.f, exhaust temperature 80° C., process time 60 min): 0.57 Log | Log reduction of antimicrobial performance (solution dosage 0.10% o.w.f, exhaust temperature 85° C., process time 60 min): 0.67 Log | Log reduction of antimicrobial performance (solution dosage 0.10% o.w.f, exhaust temperature 90° C., process time 60 min): 0.67 Log | Log reduction of antimicrobial performance (solution dosage 0.10% o.w.f, exhaust temperature 95° C., process time 60 min): 0.67 Log | Log reduction of antimicrobial performance (solution dosage 0.20% o.w.f, exhaust temperature 40° C., process time 60 min): 0 Log | Log reduction of antimicrobial performance (solution dosage 0.20% o.w.f, exhaust temperature 60° C., process time 60 min): 0 Log | Log reduction of antimicrobial performance (solution dosage 0.20% o.w.f, exhaust temperature 65° C., process time 60 min): 0 Log | Log reduction of antimicrobial performance (solution dosage 0.20% o.w.f, exhaust temperature 70° C., process time 60 min): 0 Log | Log reduction of antimicrobial performance (solution dosage 0.20% o.w.f, exhaust temperature 75° C., process time 60 min): 0.67 Log | Log reduction of antimicrobial performance (solution dosage 0.20% o.w.f, exhaust temperature 80° C., process time 60 min): 1.34 Log | Log reduction of antimicrobial performance (solution dosage 0.20% o.w.f, exhaust temperature 85° C., process time 60 min): 1.43 Log | Log reduction of antimicrobial performance (solution dosage 0.20% o.w.f, exhaust temperature 90° C., process time 60 min): 1.45 Log | Log reduction of antimicrobial performance (solution dosage 0.20% o.w.f, exhaust temperature 95° C., process time 60 min): 1.45 Log | Log reduction of antimicrobial performance (solution dosage 0.50% o.w.f, exhaust temperature 40° C., process time 60 min): 0 Log | Log reduction of antimicrobial performance (solution dosage 0.50% o.w.f, exhaust temperature 60° C., process time 60 min): 0.09 Log | Log reduction of antimicrobial performance (solution dosage 0.50% o.w.f, exhaust temperature 65° C., process time 60 min): 0.09 Log | Log reduction of antimicrobial performance (solution dosage 0.50% o.w.f, exhaust temperature 70° C., process time 60 min): 0.15 Log | Log reduction of antimicrobial performance (solution dosage 0.50% o.w.f, exhaust temperature 75° C., process time 60 min): 1.12 Log | Log reduction of antimicrobial performance (solution dosage 0.50% o.w.f, exhaust temperature 80° C., process time 60 min): 1.89 Log | Log reduction of antimicrobial performance (solution dosage 0.50% o.w.f, exhaust temperature 85° C., process time 60 min): 1.93 Log | Log reduction of antimicrobial performance (solution dosage 0.50% o.w.f, exhaust temperature 90° C., process time 60 min): 1.94 Log | Log reduction of antimicrobial performance (solution dosage 0.50% o.w.f, exhaust temperature 95° C., process time 60 min): 1.94 Log | Log reduction of antimicrobial performance (solution dosage 0.80% o.w.f, exhaust temperature 40° C., process time 60 min): 0 Log | Log reduction of antimicrobial performance (solution dosage 0.80% o.w.f, exhaust temperature 60° C., process time 60 min): 0.15 Log | Log reduction of antimicrobial performance (solution dosage 0.80% o.w.f, exhaust temperature 65° C., process time 60 min): 0.15 Log | Log reduction of antimicrobial performance (solution dosage 0.80% o.w.f, exhaust temperature 70° C., process time 60 min): 0.21 Log | Log reduction of antimicrobial performance (solution dosage 0.80% o.w.f, exhaust temperature 75° C., process time 60 min): 1.23 Log | Log reduction of antimicrobial performance (solution dosage 0.80% o.w.f, exhaust temperature 80° C., process time 60 min): 2.11 Log | Log reduction of antimicrobial performance (solution dosage 0.80% o.w.f, exhaust temperature 85° C., process time 60 min): 2.34 Log | Log reduction of antimicrobial performance (solution dosage 0.80% o.w.f, exhaust temperature 90° C., process time 60 min): 2.37 Log | Log reduction of antimicrobial performance (solution dosage 0.80% o.w.f, exhaust temperature 95° C., process time 60 min): 2.37 Log | Log reduction of antimicrobial performance (solution dosage 1.00% o.w.f, exhaust temperature 40° C., process time 60 min): 0 Log | Log reduction of antimicrobial performance (solution dosage 1.00% o.w.f, exhaust temperature 60° C., process time 60 min): 0.21 Log | Log reduction of antimicrobial performance (solution dosage 1.00% o.w.f, exhaust temperature 65° C., process time 60 min): 0.22 Log | Log reduction of antimicrobial performance (solution dosage 1.00% o.w.f, exhaust temperature 70° C., process time 60 min): 0.32 Log | Log reduction of antimicrobial performance (solution dosage 1.00% o.w.f, exhaust temperature 75° C., process time 60 min): 1.28 Log | Log reduction of antimicrobial performance (solution dosage 1.00% o.w.f, exhaust temperature 80° C., process time 60 min): 2.67 Log | Log reduction of antimicrobial performance (solution dosage 1.00% o.w.f, exhaust temperature 85° C., process time 60 min): 2.76 Log | Log reduction of antimicrobial performance (solution dosage 1.00% o.w.f, exhaust temperature 90° C., process time 60 min): 2.78 Log | Log reduction of antimicrobial performance (solution dosage 1.00% o.w.f, exhaust temperature 95° C., process time 60 min): 2.78 Log
